Laboratory results as given in paper PMC7955127, “Preclinical small molecule WEHI-7326 overcomes drug resistance and elicits response in patient-derived xenograft models of human treatment-refractory tumors” (Cell Death & Disease, 2021).

Tests used:
AH406 LUSC PDX = assay: LUSC PDX model AH406; type: in vivo, NOD-SCID-IL2Rγc–/– mice; details: WEHI-7326 20 mg/kg i.v. biweekly, docetaxel 10 mg/kg i.p. once
Procedure: LUSC PDXs were generated as described in[25]. PDXs at passage 4 were defrosted and washed with PBS before counting. 200,000 to 500,000 cells were then injected in a 50:50 PBS:Matrigel mix into the flanks of NOD-SCID-IL2Rγc–/– male mice. Tumors were measured twice weekly with calipers and treatment started when tumors were between 70–120 mm^3. Mice were assigned to treatment groups based on average tumor volume per group. Mice were culled when tumors reached a volume of 600 mm^3.

[1] = test system: PC3 (human prostate carcinoma) xenograft; assay: PC3 tumor xenograft in nude mice; type: in vivo, Balb/c nude mice; details: male nude mice, day 17, biweekly i.v.
Procedure: LoVo (4 × 10^6), PC3 (3 × 10^6) or MDA-MB-231 LNA DRE (10^6) cells were collected by trypsination and injected with 50 μl 1:1 PBS:Matrigel (v/v) subcutaneously on the right flank of 18 female (LoVo), 40 male (PC3) or into 4th mammary fat pad of 40 female (MDA231) Balb/c nude mice. Tumor growth was monitored and average tumor size at commencement of dosing was 100 mm^3. Mice were randomized into 3 arms of each 5 (LoVo), 10 (PC3) or 12 (MDA23) mice respectively and treatment with vehicle (saline), WEHI-7326 (biweekly) or docetaxel (weekly) was administered via tail vein injection. Tumor volumes were measured at least twice weekly with calipers and the experiments were terminated when tumors in the control group started exceeding 1500 mm^3. For LoVo, both vehicle and 25 mg/kg WEHI-7326 groups were harvested 24 h, but 20 mg/kg WEHI-7326 group harvested 1 h post final dose. For PC3, docetaxel group was not harvested in an attempt to grow out resistant tumors.

SW480 = assay: Cell cycle analysis (G2/M arrest, PI staining, flow cytometry), SW480; type: cell-based, human
Procedure: Fig. 2 Antimitotic activity of WEHI-7326: cancer cell lines and effects on tubulin polymerization. a Dose-dependent antimitotic activity of WEHI-7326, nocodazol and taxol in tumor cell lines SW480 (colorectal) and MDA-MB-231 (breast). Data are presented as percentage of cells in G2/M after overnight incubation with increasing concentrations of inhibitors and PI staining followed by flow cytometry analysis. Mean average of 3 independent experiments ±SEM. b EC50 values (nM) for G2/M arrest on SW480 and MDA-MB-231 cell lines, given as mean average of 3 independent experiments ±SEM. c Western blot analysis of mitotic arrest in SW480 and MDA-MB-231 cells treated with EC50 concentrations of WEHI-7326 or Paclitaxel as marked by expression of phosho-S10 Histone H3 (p-HH3 S10), at different timepoints post treatment. Expression of β-actin provided as loading control. d Cell cycle analysis of LIM1899 cells 72 h post treatment with increasing concentrations of WEHI-7326 as measured by PI staining for DNA content followed by flow cytometry analysis. Sub-G1 represents apoptotic fractions and >4 N cell fractions of mitotic slippage. e Immunofluorescence confocal microscopy of tubulin polymerization in SW480 cells treated by various agents. Cells were incubated for 24 h with control (0.1% DMSO), nocodazole (1 μM), paclitaxel (1 μM), myoseverin B (1 μM) or WEHI-7326 (1 μM). Cells were fixed and stained with β-tubulin antibody (green) and DAPI (DNA; blue) and phalloidin (actin, red). Shown are single confocal sections and enlarged areas (3x) to highlight changes in microtubule network; scale bar = 20 μm. Representative images from 2 independent experiments. f Cellular tubulin polymerization assay in cells: SW480 cells were incubated overnight with paclitaxel, myoseverin B or WEHI-7326, then processed to detect fractions of polymerized (P) and soluble (S) tubulin by western blot analysis. Representative blot of 3 independent experiments. g Tubulin polymerization was assessed in vitro over time using a fluorescence-based tubulin polymerization assay (BK011P). Tubulin was incubated with control (DMSO), paclitaxel (3 μM), nocodazole (15 μM) and WEHI-7326 at indicated concentrations (in DMSO). Polymerization was measured by excitation at 360 nm and emission at 420 nm. Representative graph of 3 independent experiments performed in duplicates. […]
Cells in log growth were supplemented with fresh medium with either vehicle (control) or compound at the stated final concentrations. […] After 1 h incubation at room temperature in the dark, cells were analyzed on a FACScan (Becton and Dickinson) in CellQuest. The percentage of cells in each phase of the cell cycle was determined using ModFit software (Verity, http://www.vsh.com). Early and late apoptotic responses elicited by WEHI-7326 were assessed using Dead Cell Apoptosis Kit (ThermoFisher Scientific) with Annexin V FITC and PI following manufacturer’s instructions. Cells were incubated 24 h with 6-point, 4-fold titration of WEHI-7326, washed twice with cold 1X PBS, resuspended in 1X Annexin Binding Buffer, incubated with FITC Annexin V and PI for 15 mins at RT in the dark and subsequently analyzed by flow cytometry.

## COc1ccc(CNc2nc(NCc3ccc(CN)cc3)nc(NN3CC(=O)NC3=O)n2)cc1 [WEHI-7326]
AH406 LUSC PDX
  Median survival: 29 days
[1]
  Tumor growth inhibition (TGI): ~ 75%
SW480; Homo sapiens, SW480, read-out: EC50 (G2/M arrest)
  EC50: 98 ± 10 nM
SW480; SW480
  G2/M cell cycle arrest: strong G2/M cell cycle arrest
